The text below walks through data of patent publication US10815275B2, “Antimicrobial peptoids with improved selectivity and use thereof” (priority 2018, dated 2020).

The term CC50 denotes the concentration giving 50% cytotoxicity. A high value points to lower toxicity to the cells.

The subject of one data set is red blood cells. Description: Hemolytic activity on red blood cells. The data set is classed as cell-based, mouse. How it is done:
In order to identify, through red blood cell hemolytic activity in mice, whether the peptoids synthesized in Preparation Example 1 are cytotoxic, red blood cells isolated from 10 mL of mouse blood were washed three times with phosphate-buffered saline (PBS, mixed solution of 35 mM phosphate buffer/150 mM NaCl, pH 7.4), and then centrifuged at a centrifugal force of 1,000 ×g for 10 minutes. A 10% (v/v) red blood cell solution diluted with PBS was dispensed into a 96-well microtiter plate at 150 μL each, and then a peptide solution was added at 50 μL each. Thereafter, the 96-well microtiter plate was incubated at a temperature of 37° C. for 1 hour.
The incubated 96-well microtiter plate was centrifuged at a centrifugal force of 1,000×g for 5 minutes. Thereafter, supernatant was taken at 100 μL each and transferred to a new 96-well microtiter plate. Then, absorbance at a wavelength of 540 nm was measured (Table 6).
In this case, a value obtained in a case of being treated with 0.1% (v/v) Triton X-100 was set as 100% hemolysis, and hemolytic activity (degree of cell destruction) of the peptoids was calculated using the following Equation 1. In the Equation 1, A is absorbance of the peptoid solution at a wavelength of 540 nm, B is absorbance of 0.1% Triton X-100 at a wavelength of 540 nm, and C is absorbance of the PBS solution at a wavelength of 540 nm. In this case, Peptoid NO. […] Degree of cell destruction (% hemolysis)=(A−C)/(B−C)[…] [Equation 1]
In Table 6, HD10 means a peptoid concentration which causes 10% hemolysis of red blood cells, and HD50 means a peptoid concentration which causes 50% hemolysis of red blood cells. In addition, Hmax is a hemolysis rate (%) at 200 μM which is the highest peptoid concentration used in the experiment.
Hemolytic activity of Peptoid NOS. 1, 18 to 23, and the peptide Pexiganan was measured in the same manner as in Experimental Example 2.

Another data set relates to B. subtilis. The data set is classed as cell-based. The following applies: 18 h. The method, then:
(§1) In order to measure antimicrobial activity of the peptoids, Gram-positive B. subtilis or Gram-negative E. coli strain DH5α was treated with Peptoid NOS. 1, 18 to 23, and the peptide Pexiganan, and minimum inhibitory concentrations were measured. Peptoid NOS. 1 and 2, and the peptide Pexiganan are already known antimicrobial peptoids and peptides, and were used for the purpose of making a comparison with novel peptoids in terms of antimicrobial activity.
(§2) Specifically, B. subtilis or E. coli DHS a was inoculated into LB liquid medium, and cultured at a temperature of 37° C. for 18 hours. Thereafter, the bacteria were diluted with LB medium so that each bacterial number was 2×10^5 colony-forming units (CFU) per 1 mL, and dispensed into 96-well microtiter plates at 100 μL each. The peptoid, which is 2-fold serially diluted using sterile water, was added to each well at 100 μL each. The plates were incubated at a temperature of 37° C. for 18 hours.
(§3) Thereafter, absorbance was measured at a wavelength of 600 nm using a microplate reader (Bio-Rad). The lowest peptoid concentration that completely suppresses growth of microorganisms was measured by a minimum inhibitory concentration (MIC), and the measurement results are shown in Table 12 below. Each of the minimum inhibitory concentration values was calculated as an average value of numerical values obtained through three independent experiments.

In another data set the test system is E. coli strain DH5α. Description: Antimicrobial activity of peptoids with altered cationic residues, MIC. It counts as cell-based. The following applies: LB medium, 18 h. The method, then: as §1, §2, §3
A further data set in a line: in vitro. To be noted: human. The data set is classed as cell-based. How it is done: In order to determine whether the peptoids were cytotoxic against human cell lines, […] cell line (Korean Cell Line Bank) which is a human lung cell line was cultured in a DMEM (Dulbecco's modified Eagle's medium) culture solution containing 10% (v/v) fetal bovine serum (FBS) at 5% CO2 and a temperature of 37° C. 100 μL of DMEM medium was dispensed into each well of a 96-well microtiter plate so that the number of cells was 1.3×10^4, and then incubated overnight at a temperature of 37° C. in a 5% CO2 incubator. In this case, a DMEM medium was used as a negative control. Thereafter, the peptoid which is 2-fold serially diluted using sterile water was added to each well, and then incubated for 24 hours.
After incubation, 20 μL of an MTS solution [3-(4,5-dimethylthiazol-2-yl)-5-(3-carboxymethoxyphenyl)-2-(4-sulfophenyl)-2H-tetrazolium, inner salt; MTS] was added thereto and incubated at a temperature of 37° C. for 4 hours. Thereafter, % survival was calculated by measuring absorbance at a wavelength of 490 nm using an ELISA reader. The % survival was calculated as a percentage obtained by dividing the absorbance value for a well-treated with the peptoid by the absorbance value for a well containing control cells which had not been treated with the peptoid.

Values after ≈ are worked out from the molar mass of the structure shown. Non-standard residues stand in square brackets, D forms with d. Residues, ends and D or L forms follow the SMILES beside them. Nspe = C[C@H](NCC(=O)O)c1ccccc1; Nlys = NCCCCNCC(=O)O

Take `C[C@@H](c1ccc(Cl)cc1)N(CC(N)=O)C(=O)CN(C(=O)CN(CCCCN)C(=O)CN(C(=O)CN(C(=O)CN(CCCCN)C(=O)CN(C(=O)CN(C(=O)CN(CCCCN)C(=O)CN(C(=O)CN(C(=O)CNCCCCN)[C@@H](C)c1ccc(Cl)cc1)[C@@H](C)c1ccc(Cl)cc1)[C@@H](C)c1ccc(Cl)cc1)[C@@H](C)c1ccc(Cl)cc1)[C@@H](C)c1ccc(Cl)cc1)[C@@H](C)c1ccc(Cl)cc1)[C@@H](C)c1ccc(Cl)cc1` [compound 19]: in the data set on red blood cells, the HD10 is on record as < 6.25 and the HD50 was 10.4. Besides, the “MIC B. subtilis” value against B. subtilis stood at 6.1 µM (≈ 12.8 µg/mL). In addition, the “MIC E. coli” value against E. coli strain DH5α is >6.1 µM. Moreover, the CC50 at 24 h in “in vitro” worked out at 3 µM.
The like results for `Cc1ccc([C@H](C)N(CC(N)=O)C(=O)CN(C(=O)CN(CCCCN)C(=O)CN(C(=O)CN(C(=O)CN(CCCCN)C(=O)CN(C(=O)CN(C(=O)CN(CCCCN)C(=O)CN(C(=O)CN(C(=O)CNCCCCN)[C@@H](C)c2ccc(C)cc2)[C@@H](C)c2ccc(C)cc2)[C@@H](C)c2ccc(C)cc2)[C@@H](C)c2ccc(C)cc2)[C@@H](C)c2ccc(C)cc2)[C@@H](C)c2ccc(C)cc2)[C@@H](C)c2ccc(C)cc2)cc1` [compound 20] were, in that order, < 6.25, 8.3, 0.8 µM (≈ 1.55 µg/mL), >6.1 µM and 8 µM.
For the compound `C[C@@H](c1ccccc1)N(CC(=O)N(CCCCN)CC(=O)N(CC(=O)N(CC(=O)N(CCCCN)CC(=O)N(CC(=O)N(CC(=O)N(CCCCN)CC(N)=O)[C@@H](C)c1ccccc1)[C@@H](C)c1ccccc1)[C@@H](C)c1ccccc1)[C@@H](C)c1ccccc1)C(=O)CN(C(=O)CNCCCCN)[C@@H](C)c1ccccc1` [compound 23] (H-[Nlys][Nspe][Nspe][Nlys][Nspe][Nspe][Nlys][Nspe][Nspe][Nlys]-NH2), in the data set on B. subtilis, the “MIC B. subtilis” value amounted to 0.8 µM (≈ 1.2 µg/mL). Besides, in the data set with E. coli strain DH5α, the “MIC E. coli” value is 1.6 µM (≈ 2.4 µg/mL). This compound gave a CC50 at 24 h in the data set “in vitro” of 80.5 µM.
